Test results as given in patent US20130059787A1, “METHODS OF USING HUMAN PROTEIN KINASE C DELTA VIII AS A BIOMARKER” (UNITED STATES DEPARTMENT OF VETERAN AFFAIRS, priority 2010, published 2013).

What was measured:
[1] = system: APP/PS1 transgenic mice; details: RA treatment; cited from earlier work
[2] = system: PKCδVIII mRNA; test: Quantitative real-time RT-PCR (SYBR Green) in primary human neuronal cells from hippocampus; type: cell-based; details: RA about 10 μM, about 24 h
Source text: (§1) FIG. 1 is a series of images illustrating the alternative splice site in human PKC δ. (a) schematic of alternative 5′ splice site selection in human PKCδ pre-mRNA exon 10 that results in the generation of PKCδI mRNA and PKCδVIII mRNA, which differ by about 93 bp in the V3 hinge region. RA promotes expression of PKCδVIII mRNA. SSI: 5′ splice site I; SSII: 5′ splice site II. (b) schematic of the primers specific for PKC δI and PKC δVIII used in real time RT-PCR such that they span the exon-exon boundaries. (c) primary human neuronal cells from hippocampus were treated with or without RA (about 10 μM) for about 24 h. […]
(§2) cDNA (about 2 μl) was amplified by real-time quantitative PCR using Syber (SYBR) Green with an ABI PRISM 7900 sequence detection system (PE Applied Biosystems, Foster City, Calif.) as described previously to quantify absolute levels of PKCδI and PKCδVIII mRNA in the samples (Jiang, K., Apostolatos, A. H., Ghansah, T., Watson, J. E., Vickers, T., Cooper, D. R., Epling-Burnette, P. K., and Patel, N. A. (2008) Biochemistry 47, 787-797). […]
(§3) sense primer 5′-[…]-3′(SEQ ID No: 6) and antisense primer 5′-[…]-3′ (SEQ ID No: 7). […] Absolute quantification of mRNA expression levels for PKCδI and PKCδVIII was calculated by normalizing the values to GAPDH. The results were analyzed with two-tailed Student's t test using PRISM4 statistical analysis software (GraphPad, San Diego, Calif.). […]

[3] = system: PKCδI mRNA; test: as above; type: cell-based; details: RA about 10 μM, about 24 h
Source text: as §1, §2, §3

In the case of `CC1=C(/C=C/C(C)=C/C=C/C(C)=C/C(=O)O)C(C)(C)CCC1` [RA, all-trans-retinoic acid], the “APP phosphorylation and processing” value [1] is listed as “decreased”, the Aβ deposition [1] is listed as “decreased” and the “activation of microglia and astrocytes” value [1] is listed as “decreased”. For the same molecule, the neuronal degeneration [1] was “attenuated”, the “spatial learning and memory” value [1] was “improved” and the tau phosphorylation [1] was “decreased”. For the same molecule, the “absolute mRNA expression of PKCδVIII normalized to GAPDH” value [2] was “increased” and the “absolute mRNA expression of PKCδI normalized to GAPDH” value [3] was “remain constant”.
